{"source": "patent US7829296B2", "about": "“Kinesin polypeptides, polynucleotides encoding same and compositions and methods of using same” (Ramot at Tel-Aviv University Ltd., priority 2005, dated 2010)", "key": {"ERK1/2 in MBA-15 cells [1]": {"system": "ERK1/2 in MBA-15 cells", "test": "Estrogen signaling, ERK1/2 pathway: Western blot for pERK1/2 on whole cell lysates", "assay_type": "cell-based", "conditions": "FIG. 16A; for 17βE2-induced increase of pERK1/2 after pretreatment: then 10^−8M 17β-estrogen five minutes", "protocol": "Western blot analysis and Immunoprecipitation: Cells were harvested from cultures, washed twice with ice-cold PBS and collected in presence of protease inhibitors (Phenylmethylsulfonyl fluoride PMSF, 1 mM; 1-Chloro-3-tosylamido-4-phenyl-2-butanone, TPCK, 10 μg/ml; Aprotinin, 10 μg/ml (Sigma, USA) and phosphatase inhibitor cocktails I and II (Sigma, USA). Samples were spun down at 1500 rpm for 4 minutes and pellets were reconstituted in lyses buffer (50 mM Tris pH 7.5, 150 mM NaCl, 1% NP-40, and protease and phosphatase inhibitors, as above). Following a 20 minute incubation at 4° C., samples were centrifuged at 16,000 g for 5 minutes.\n(§1) For Western blot, the membranes were blocked with 5% BSA in TBST (50 mM Tris, pH-7.5, 150 mM NaCl, 0.1% Tween-20, Sigma, USA) for 1 hour at RT or overnight and than incubated with anti-MS-KIF18A. The membranes were washed with TBST and incubated with goat anti-rabbit or goat anti-mouse conjugated to biotin (Dako, Denmark) for 40 minutes at RT and Extravidin-Peroxidase (Sigma, USA) for detection with chemiluminescent substrate (Pierce, USA).\n(§2) Estrogen signaling, ERK1/2 pathway: MBA-15 cells were maintained in medium supplemented with 3% charcoal striped FCS for 48 hours prior to the start of the experiment. On the day of the experiment, the cells were pretreated with 25 μM MAPK inhibitor, PD98059 (Calbiochem, USA) and an estrogen antagonist ICI 182,780 10^−6M (Tocris, USA) for 45 minutes. 10^−8M 17β-estrogen (Sigma, USA) was added for five minutes. Cell lysates were used for immunoprecipitation and analyzed by Western blot.\n(§3) Immunoprecipitation, Western blot, SDS-PADE gel: All experiments were performed as described in Example 1. Primary antibodies included anti-MS-KIF18A, anti-ER antibodies (Upstate Biotechnologies, USA) or SRA-1010 (Stressgen, Canada), anti-ERK1/2, pERK1/2 (Sigma, USA) or anti-His-tag (Santa Cruz Biotechnologies, USA). For detection a secondary antibody conjugated to biotin-extravidine-peroxidase and chemiluminescent substrate was used (Pierce, USA)."}, "ERK1/2 in MBA-15 cells [2]": {"system": "ERK1/2 in MBA-15 cells", "test": "pERK1/2 in anti-MS-KIF18A immunoprecipitates (MS-KIF18A-ERα complex), Western blot", "assay_type": "cell-based", "conditions": "for ERK activation in anti-MS-KIF18A immunoprecipitate after pretreatment: then 17β-estrogen", "protocol": "(§4) For immunoprecipitation (IP), anti-MS-KIF18A and protein-A sepharose beads (Sigma, USA) were added to lysates and samples were incubated overnight at 4° C. Immunocomplexes were precipitated at 16,000 g for 1 minute and washed 4 times with lyses buffer. The washed beads were re-suspended in Lamelli sample buffer and boiled for 3 minutes. The proteins were separated on 8% SDS-PAGE gel for 2 hours and transferred to nitrocellulose for 1.5 hours.\nas §1, §2, §3"}, "ERα 66 kDa": {"target": "T1, ERα 66 kDa (Homo sapiens, UniProt P03372)", "T1 construct": "expressed in transfected cells; host or cells: COS-7", "T1 sequence (P03372 1-595)": "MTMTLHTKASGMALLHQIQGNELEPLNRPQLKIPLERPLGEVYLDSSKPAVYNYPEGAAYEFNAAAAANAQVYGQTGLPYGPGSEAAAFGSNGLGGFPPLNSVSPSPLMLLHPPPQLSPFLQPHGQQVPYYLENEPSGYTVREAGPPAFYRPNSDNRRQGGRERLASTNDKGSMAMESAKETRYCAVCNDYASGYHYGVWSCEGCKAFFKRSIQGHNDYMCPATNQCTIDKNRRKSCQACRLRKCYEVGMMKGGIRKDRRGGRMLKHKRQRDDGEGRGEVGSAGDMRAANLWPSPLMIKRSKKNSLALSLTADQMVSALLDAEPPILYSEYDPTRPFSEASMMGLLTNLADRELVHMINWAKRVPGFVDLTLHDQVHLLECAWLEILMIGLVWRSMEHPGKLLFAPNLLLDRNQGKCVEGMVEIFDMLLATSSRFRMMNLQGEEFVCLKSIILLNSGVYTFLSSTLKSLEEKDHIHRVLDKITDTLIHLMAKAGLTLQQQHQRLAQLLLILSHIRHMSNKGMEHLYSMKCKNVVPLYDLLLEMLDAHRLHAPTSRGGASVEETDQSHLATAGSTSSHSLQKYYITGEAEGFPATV", "T1 sequence (Q8NI77 1-898 I735V partner)": "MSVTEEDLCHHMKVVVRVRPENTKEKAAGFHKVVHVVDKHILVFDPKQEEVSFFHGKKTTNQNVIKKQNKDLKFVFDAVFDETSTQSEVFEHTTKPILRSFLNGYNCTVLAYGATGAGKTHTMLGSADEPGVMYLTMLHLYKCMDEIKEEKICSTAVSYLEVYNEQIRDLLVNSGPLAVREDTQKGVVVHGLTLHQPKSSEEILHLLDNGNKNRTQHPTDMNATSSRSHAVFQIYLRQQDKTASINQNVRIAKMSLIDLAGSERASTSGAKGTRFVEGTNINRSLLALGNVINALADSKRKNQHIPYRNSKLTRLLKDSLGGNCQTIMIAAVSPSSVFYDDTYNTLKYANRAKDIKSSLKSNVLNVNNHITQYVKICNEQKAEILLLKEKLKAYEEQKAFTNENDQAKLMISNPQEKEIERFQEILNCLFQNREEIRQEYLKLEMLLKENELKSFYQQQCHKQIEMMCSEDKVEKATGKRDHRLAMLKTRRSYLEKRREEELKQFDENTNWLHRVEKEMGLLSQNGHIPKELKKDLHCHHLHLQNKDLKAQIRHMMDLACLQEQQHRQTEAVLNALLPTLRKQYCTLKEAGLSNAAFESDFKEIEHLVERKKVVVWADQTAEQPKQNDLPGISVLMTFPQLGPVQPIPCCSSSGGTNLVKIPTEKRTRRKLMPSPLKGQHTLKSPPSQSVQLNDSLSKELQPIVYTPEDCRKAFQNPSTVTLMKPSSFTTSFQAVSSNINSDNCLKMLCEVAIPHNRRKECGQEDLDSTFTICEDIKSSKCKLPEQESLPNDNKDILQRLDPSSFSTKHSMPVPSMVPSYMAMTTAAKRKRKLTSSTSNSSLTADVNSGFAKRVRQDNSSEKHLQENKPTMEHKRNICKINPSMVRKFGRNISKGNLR", "test": "Co-immunoprecipitation of co-transfected His-MS-KIF18A and ERα 66 kDa in COS-7 cells", "assay_type": "binding", "conditions": "COS-7 cells co-transfected with His-MS-KIF18A and ERα 66 kDa, FIGS. 14A-B", "protocol": "as §4, §1\nas §3, with “(Pierce, USA). […]” for “(Pierce, USA).”"}, "ERα": {"system": "ERα", "test": "Co-immunoprecipitation of endogenous MS-KIF18A and ERα in MBA-15 cells", "assay_type": "binding", "conditions": "MBA-15 cell lysates, antibodies directed against MS-KIF18A, FIG. 15", "protocol": "as §4, §1, §3"}}, "data": [{"molecule": "C[C@]12CC[C@@H]3c4ccc(O)cc4C[C@@H](CCCCCCCCC[S+]([O-])CCCC(F)(F)C(F)(F)F)[C@H]3[C@@H]1CC[C@@H]2O", "note": "(some centres unmarked) [ICI 182,780]", "values": [{"measurement": "17βE2-induced increase of pERK1/2 after pretreatment", "setting": "ERK1/2 in MBA-15 cells [1]; pretreated with ICI 182,780 10^−6M for 45 minutes", "value": "inhibited"}, {"measurement": "ERK activation in anti-MS-KIF18A immunoprecipitate after pretreatment", "setting": "ERK1/2 in MBA-15 cells [2]; pretreated with ICI 182,780 10^−6M 45 minutes, FIG. 16D lane 3, FIG. 16E", "value": "reduced ERK activation"}]}, {"molecule": "COc1cccc(-c2cc(=O)c3ccccc3o2)c1N", "note": "[PD98059]", "values": [{"measurement": "17βE2-induced increase of pERK1/2 after pretreatment", "setting": "ERK1/2 in MBA-15 cells [1]; pretreated with 25 μM PD98059 for 45 minutes", "value": "inhibited"}, {"measurement": "ERK activation in anti-MS-KIF18A immunoprecipitate after pretreatment", "setting": "ERK1/2 in MBA-15 cells [2]; pretreated with 25 μM PD98059 45 minutes, FIG. 16D lane 2, FIG. 16E", "value": "reduced ERK activation"}]}, {"molecule": "17β-estrogen [17βE2]", "values": [{"measurement": "pERK1/2 following 17βE2 stimulation", "setting": "ERK1/2 in MBA-15 cells [1]; 10^−8M 17β-estrogen for five minutes", "value": "increase"}, {"measurement": "activated ERK in anti-MS-KIF18A immunoprecipitate following estrogen treatment", "setting": "ERK1/2 in MBA-15 cells [2]; 10^−8M 17β-estrogen five minutes, FIG. 16D lane 4", "value": "increase in activated ERK"}]}, {"molecule": "His-MS-KIF18A: His-tagged MS-KIF18A expressed from pcDNA3.1-His-C-MS-KIF18A in COS-7 cells (protein, left off: small tags and cut ends, His-tagged MS-KIF18A expressed from pcDNA3.1-His-C-MS-KIF18A in COS-7 cells) MSVTEEDLCHHMKVVVRVRPENTKEKAAGFHKVVHVVDKHILVFDPKQEEVSFFHGKKTTNQNVIKKQNKDLKFVFDAVFDETSTQSEVFEHTTKPILRSFLNGYNCTVLAYGATGAGKTHTMLGSADEPGVMYLTMLHLYKCMDEIKEEKICSTAVSYLEVYNEQIRDLLVNSGPLAVREDTQKGVVVHGLTLHQPKSSEEILHLLDNGNKNRTQHPTDMNATSSRSHAVFQIYLRQQDKTASINQNVRIAKMSLIDLAGSERASTSGAKGTRFVEGTNINRSLLALGNVINALADSKRKNQHIPYRNSKLTRLLKDSLGGNCQTIMIAAVSPSSVFYDDTYNTLKYANRAKDIKSSLKSNVLNVNNHITQYVKICNEQKAEILLLKEKLKAYEEQKAFTNENDQAKLMISNPQEKEIERFQEILNCLFQNREEIRQEYLKLEMLLKENELKSFYQQQCHKQIEMMCSEDKVEKATGKRDHRLAMLKTRRSYLEKRREEELKQFDENTNWLHRVEKEMGLLSQNGHIPKELKKDLHCHHLHLQNKDLKAQIRHMMDLACLQEQQHRQTEAVLNALLPTLRKQYCTLKEAGLSNAAFESDFKEIEHLVERKKVVVWADQTAEQPKQNDLPGISVLMTFPQLGPVQPIPCCSSSGGTNLVKIPTEKRTRRKLMPSPLKGQHTLKSPPSQSVQLNDSLSKELQPIVYTPEDCRKAFQNPSTVTLMKPSSFTTSFQAVSSNINSDNCLKMLCEVAIPHNRRKECGQEDLDSTFTICEDIKSSKCKLPEQESLPNDNKDILQRLDPSSFSTKHSMPVPSMVPSYMAMTTAAKRKRKLTSSTSNSSLTADVNSGFAKRVRQDNSSEKHLQENKPTMEHKRNICKINPSMVRKFGRNISKGNLR", "values": [{"measurement": "interaction with ERα 66 kDa (pull-down by anti-MS-KIF18A and anti-His antibodies)", "setting": "ERα 66 kDa", "value": "interaction"}]}, {"molecule": "MS-KIF18A: novel kinesin KIF18A polypeptide of 898 amino acids expressed in mesenchymal stem cells, SEQ ID NO: 2 (protein, listed as Homo sapiens) MSVTEEDLCHHMKVVVRVRPENTKEKAAGFHKVVHVVDKHILVFDPKQEEVSFFHGKKTTNQNVIKKQNKDLKFVFDAVFDETSTQSEVFEHTTKPILRSFLNGYNCTVLAYGATGAGKTHTMLGSADEPGVMYLTMLHLYKCMDEIKEEKICSTAVSYLEVYNEQIRDLLVNSGPLAVREDTQKGVVVHGLTLHQPKSSEEILHLLDNGNKNRTQHPTDMNATSSRSHAVFQIYLRQQDKTASINQNVRIAKMSLIDLAGSERASTSGAKGTRFVEGTNINRSLLALGNVINALADSKRKNQHIPYRNSKLTRLLKDSLGGNCQTIMIAAVSPSSVFYDDTYNTLKYANRAKDIKSSLKSNVLNVNNHITQYVKICNEQKAEILLLKEKLKAYEEQKAFTNENDQAKLMISNPQEKEIERFQEILNCLFQNREEIRQEYLKLEMLLKENELKSFYQQQCHKQIEMMCSEDKVEKATGKRDHRLAMLKTRRSYLEKRREEELKQFDENTNWLHRVEKEMGLLSQNGHIPKELKKDLHCHHLHLQNKDLKAQIRHMMDLACLQEQQHRQTEAVLNALLPTLRKQYCTLKEAGLSNAAFESDFKEIEHLVERKKVVVWADQTAEQPKQNDLPGISVLMTFPQLGPVQPIPCCSSSGGTNLVKIPTEKRTRRKLMPSPLKGQHTLKSPPSQSVQLNDSLSKELQPIVYTPEDCRKAFQNPSTVTLMKPSSFTTSFQAVSSNINSDNCLKMLCEVAIPHNRRKECGQEDLDSTFTICEDIKSSKCKLPEQESLPNDNKDILQRLDPSSFSTKHSMPVPSMVPSYMAMTTAAKRKRKLTSSTSNSSLTADVNSGFAKRVRQDNSSEKHLQENKPTMEHKRNICKINPSMVRKFGRNISKGNLR", "values": [{"measurement": "association with endogenous ERα (co-immunoprecipitation)", "setting": "ERα", "value": "confirmed the association"}]}]}
